From patent publication US9447157B2, “Nitration shielding peptides and methods of use thereof” (Augusta University Research Institute, Inc., priority 2013, dated 2016)

Test system: Pulmonary artery smooth muscle cells (PASMC)
Experiment: PASMC phenotype markers (Western blot, immunocytochemistry)
Assay type: cell-based, lamb
Conditions: SIN-1 500 μM 48 h
Protocol: Cells were prepared as previously described (Sud, N., et al., American Journal of Physiology 293, L1444-1453 (2007); Sharma, S., et al., American Journal of Physiology 294, L46-56 (2008)). Briefly, the cellular protein extracts were prepared by homogenizing the cells in lysis buffer (50 mM Tris-HCl, pH 7.6, 0.5% Triton X-100, and 20% glycerol) containing Halt protease inhibitor cocktail (Pierce, Rockford, Ill.). The extracts were then clarified by centrifugation (20,000 g for 20 min at 4° C.). The supernatant fractions were assayed for protein concentration using the Bio-Rad DC Protein Assay (Bio-Rad Laboratories, Hercules, Calif.) and used for Western blot analysis. Similarly, peripheral lung tissue from the control lambs and the lambs with pulmonary hypertension secondary to increased pulmonary blood flow (shunt) was prepared as described earlier (Aggarwal, S., et al., Journal of Cellular Physiology (2011)). Cell extracts ([…]) were resolved using 4-20% Tris-SDS-Hepes PAGE, electrophoretically transferred to Immuno-Blot™ PVDF membrane (Bio-Rad Laboratories, Hercules, Calif.), and then blocked with 5% nonfat dry milk in Tris buffered saline. The membranes were then probed with antibodies against PKG-1α (1:500 dilution), anti-nitrotyrosine 247-PKG-1α (1:500), Calponin-1 (1:500 dilution), Vimentin (1:500 dilution), or MYH (1:500 dilution). Reactive bands were visualized using chemi-luminescence (Pierce Laboratories, Rockford, Ill.) on a Kodak 440CF image station. The band intensity was quantified using Kodak 1D image processing software. The protein expression was normalized by re-probing with anti β-actin (1:2000).
Semi-confluent PASMC grown on a coverslip in a 6-well plate were transfected with a mammalian expression plasmid containing either a wild-type (WT)- or Y247F-PKG-1α cDNA. After 20 h, the cells were serum starved (1% FBS) for 4 h then exposed or not to SIN-1 (500 μM) for 48 h. The cells were washed with PBS, methanol fixed (5 min), and permeabilized in 0.1% PBS-Tween (20 min). […] The cells were rinsed 3× with PBS, and the coverslips were mounted on the slides with ProLong Gold Antifade and analyzed with the use of a Nikon Eclipse TE 300 inverted fluorescent microscope with a 60× oil objective and a Hamamatsu digital camera.
To assess the effect of nitration on pulmonary arterial smooth muscle cell (PASMC) phenotype, PASMC were transiently transfected with expression plasmids containing WT-PKG-1α, Y247F-PKG-1α, or PDEST40 (as a control) for 20 h. Cells were then exposed or not to SIN-1 (500 μM, 48 h) and the effect on synthetic and contractile markers determined. The levels of myosin heavy chain (MYH, FIG. 18A), Calponin-1 (FIG. 18B), and Vimentin (FIG. 18C) were determined. […]

## 3-morpholinosydnonimine N-ethylcarbamide [SIN-1]
WT-PKG-1α expressing PASMC
  PCNA staining: increased
  SM-22α expression: attenuated
WT-PKG-1α transfected PASMC
  Expression of contractile markers MYH and Calponin-1: decreased
  Expression of proliferative marker Vimentin: increased
